Data from patent publication US7179941B2, “Carbonylamino-substituted acyl phenyl urea derivatives, process for their preparation and their use” (Sanofi-Aventis Deutschland GmbH, priority 2003, dated 2007).

Target: T1, human glycogen phosphorylase a (Homo sapiens, UniProt P06737)
T1 sequence (P06737 1-847): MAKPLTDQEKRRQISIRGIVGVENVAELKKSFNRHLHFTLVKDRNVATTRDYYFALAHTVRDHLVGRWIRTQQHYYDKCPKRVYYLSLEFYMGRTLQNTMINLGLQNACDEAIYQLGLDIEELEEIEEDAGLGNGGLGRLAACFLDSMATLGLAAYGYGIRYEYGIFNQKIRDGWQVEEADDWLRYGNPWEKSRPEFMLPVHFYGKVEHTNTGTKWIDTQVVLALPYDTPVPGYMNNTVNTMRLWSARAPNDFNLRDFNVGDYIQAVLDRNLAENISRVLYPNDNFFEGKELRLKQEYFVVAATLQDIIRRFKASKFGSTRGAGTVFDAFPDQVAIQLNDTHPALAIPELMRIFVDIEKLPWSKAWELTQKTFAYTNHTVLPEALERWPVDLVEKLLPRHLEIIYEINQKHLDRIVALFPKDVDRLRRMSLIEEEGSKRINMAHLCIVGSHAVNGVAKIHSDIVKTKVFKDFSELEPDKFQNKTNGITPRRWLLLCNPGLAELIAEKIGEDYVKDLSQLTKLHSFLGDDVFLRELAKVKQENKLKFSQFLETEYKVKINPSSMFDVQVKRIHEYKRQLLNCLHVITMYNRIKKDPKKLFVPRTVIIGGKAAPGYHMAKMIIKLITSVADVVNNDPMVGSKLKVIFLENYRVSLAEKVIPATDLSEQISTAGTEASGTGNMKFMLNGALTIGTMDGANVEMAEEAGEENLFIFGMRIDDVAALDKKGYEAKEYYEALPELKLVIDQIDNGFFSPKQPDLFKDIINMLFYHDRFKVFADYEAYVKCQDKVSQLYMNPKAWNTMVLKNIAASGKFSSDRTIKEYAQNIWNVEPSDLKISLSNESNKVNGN
Assay: Glycogen phosphorylase a activity test
Type: biochemical
Conditions: read-out: inhibition at a concentration of 100 μM

Row | inhibition at 100 µM | Structure (SMILES)
1 | 11% | O=C(O)C(=O)Nc1ccccc1C(=O)O [Comparative Example A, reference compound]

Target: T1, human glycogen phosphorylase a
Assay: Glycogen phosphorylase a activity test
Type: biochemical
Conditions: 10 μM test substance; GPa measured in reverse direction (glycogen synthesis from glucose 1-phosphate)
Procedure: Glycogen Phophorylase a Activity Test
The effect of compounds on the activity of the active form of glycogen phosphorylase (GPa) was measured in the reverse direction by monitoring the synthesis of glycogen from glucose 1-phosphate by determining the release of inorganic phosphate. All reactions were carried out as duplicate determinations in 96-well microtiter plates (half area plates, Costar No. 3696), and the change in absorption as a consequence of the formation of the reaction product was measured at the wavelength specified below in a Multiskan Ascent Elisa Reader (Lab Systems, Finland).
In order to measure the GPa enzyme activity in the reverse direction, the conversion of glucose 1-phosphate to glycogen and inorganic phosphate was measured by the general method of Engers et al. (Engers HD, Shechosky S, Madsen NB, Can J Biochem 1970 July;48(7):746–754) with the following modifications: human glycogen phosphorylase a (for example containing 0.76 mg of protein/ml (Aventis Pharma Deutschland GmbH), dissolved in buffer solution E (25 mM P-glycerophosphate, pH 7.0, 1 mM EDTA and 1 mM dithiotreitol) was diluted to a concentration of 10 μg of protein/ml with buffer T (50 mM Hepes, pH 7.0, 100 mM KCl, 2.5 mM EDTA, 2.5 mM MgCl2.6H2O) and addition of 5 mg/ml of glycogen. Test substances were prepared as a 10 mM solution in DMSO and diluted to 50 μM with buffer solution T. To 10 μl of this solution were added 10 μl of 37.5 mM glucose dissolved in buffer solution T and 5 mg/ml of glycogen, and also 10 μl of a solution of human glycogen phosphorylase a (10 μg of protein/ml) and 20 μl of 2.5 mM glucose 1-phosphate. The base value of the activity of glycogen phosphorylase a in the absence of test substance was determined by adding 10 μl of buffer solution T (0.1% DMSO). The mixture was incubated at room temperature for 40 minutes and the released inorganic phosphate was determined by means of the general method of Drueckes et al. (Drueckes P, Schinzel R, Palm D, Anal Biochem 1995 Sep. 1;230(1):173–177) with the following modifications: 50 μl of a stop solution of 7.3 mM of ammonium molybdate, 10.9 mM of zinc acetate, 3.6% of ascorbic acid, 0.9% of SDS are added to 50 μl of the enzyme mixture. After 60 minutes of incubation at 45° C., the absorption was measured at 820 nm. To determine the background absorption, the stop solution was added immediately after the addition of the glucose 1-phosphate solution in a separate reaction.

Row | Structure (SMILES) | % Inhibition at 10 μM | inhibition at 10 µM
2 | O=C(O)C(=O)Nc1ccccc1C(=O)O [Comparative Example A, reference compound] | no inhibition | –
3 | COC(=O)CC(=O)Nc1cc(NC(=O)NC(=O)c2cc(F)c(F)cc2Cl)c(C)cc1OC [Example 10] | 95% | –
4 | COc1ccc(NC(=O)CCC(N)=O)cc1NC(=O)NC(=O)c1cc(F)c(F)cc1Cl [Example 8] | 100% | –
5 | COc1ccc(NC(=O)c2ccccc2OC)cc1NC(=O)NC(=O)c1cc(F)c(F)cc1Cl [Example 34] | 97% | –
6 | CCOC(=O)CCC(=O)Nc1ccc(OC)c(NC(=O)NC(=O)c2cc(F)c(F)cc2Cl)c1 [Example 48] | 97% | –
7 | COc1cc(C(=O)O)c(NC(=O)CC(=O)O)cc1NC(=O)NC(=O)c1cc(F)c(F)cc1Cl [Example 22] | 96% | –
8 | COC(=O)CCC(=O)Nc1ccc(OC)c(NC(=O)NC(=O)c2cc(F)c(F)cc2Cl)c1 [Example 4] | 97% | –
9 | O=C(O)CCC(=O)Nc1ccc(OC(F)(F)F)c(NC(=O)NC(=O)c2cc(F)c(F)cc2Cl)c1 [Example 70] | 99% | –
10 | COc1cccc(CC(=O)Nc2ccc(OC)c(NC(=O)NC(=O)c3cc(F)c(F)cc3Cl)c2)c1 [Example 41] | 104% | –
11 | COc1ccc2oc(C(=O)Nc3ccc(OC)c(NC(=O)NC(=O)c4cc(F)c(F)cc4Cl)c3)cc2c1 [Example 38] | 102% | –
12 | COc1cc(C)c(NC(=O)NC(=O)c2cc(F)c(F)cc2Cl)cc1NC(=O)C(=O)O [Example 13] | 94% | –
13 | CCCCC(=O)Nc1ccc(OC)c(NC(=O)NC(=O)c2cc(F)c(F)cc2Cl)c1 [Example 47] | 105% | –
14 | C#CCCC(=O)Nc1ccc(OC)c(NC(=O)NC(=O)c2cc(F)c(F)cc2Cl)c1 [Example 57] | 99% | –
15 | COc1cc(C)c(NC(=O)CC(=O)O)cc1NC(=O)NC(=O)c1cc(F)c(F)cc1Cl [Example 18] | 99% | –
16 | COC(=O)CC(=O)Nc1cc(NC(=O)NC(=O)c2cc(F)c(F)cc2Cl)c(OC)cc1C [Example 16] | 95% | –
17 | CCOC(=O)c1cc(OC)c(NC(=O)NC(=O)c2cc(F)c(F)cc2Cl)cc1NC(C)=O [Example 20] | 95% | –
18 | COc1ccc(NC(=O)C2CC2)cc1NC(=O)NC(=O)c1cc(F)c(F)cc1Cl [Example 31] | 98% | –
19 | COc1cc(C)c(NC(=O)C(=O)O)cc1NC(=O)NC(=O)c1cc(F)c(F)cc1Cl [Example 17] | 100% | –
20 | COc1cc(C(=O)O)c(NC(C)=O)cc1NC(=O)NC(=O)c1cc(F)c(F)cc1Cl [Example 19] | 97% | –
21 | COc1ccc(NC(C)=O)cc1NC(=O)NC(=O)c1cc(F)c(F)cc1Cl [Example 1, N-{3-[3-(2-Chloro-4,5-difluorobenzoyl)ureido]-4-methoxyphenyl}acetamide] | – | 99%
22 | COC(=O)CC(=O)Nc1ccc(N2CCCC2)c(NC(=O)NC(=O)c2cc(F)c(F)cc2Cl)c1 [Example 75] | 100% | –

Results, then the compound that gave them:

Row | % Inhibition at 10 μM | inhibition at 10 µM | Structure (SMILES)
23 | 98% | – | CC(=O)Nc1ccc(Cl)c(NC(=O)NC(=O)c2cc(F)c(F)cc2Cl)c1 [Example 85]
24 | 101% | – | COc1ccc(NC(=O)c2cc3cc(Cl)ccc3o2)cc1NC(=O)NC(=O)c1cc(F)c(F)cc1Cl [Example 39]
25 | 86% | – | O=C(O)CCC(=O)Nc1cccc(NC(=O)NC(=O)c2ccc(Cl)cc2Cl)c1 [Example 78]
26 | 102% | – | COc1ccc(NC(C)=O)cc1NC(=O)NC(=O)c1ccc(Cl)cc1Cl [Example 82]
27 | 97% | – | O=C(NC(=O)c1cc(F)c(F)cc1Cl)Nc1cc(NC(=O)C(=O)O)ccc1Cl [Example 88]
28 | 103% | – | C#CCC(=O)Nc1ccc(OC)c(NC(=O)NC(=O)c2cc(F)c(F)cc2Cl)c1 [Example 60]
29 | 99% | – | CC=CC(=O)Nc1ccc(OC)c(NC(=O)NC(=O)c2cc(F)c(F)cc2Cl)c1 [Example 35]
30 | 104% | – | COC(=O)CC(=O)Nc1ccc(OC)c(NC(=O)NC(=O)c2cc(F)c(F)cc2Cl)c1 [Example 3]
31 | 98% | – | CC(=O)Nc1ccc(Cl)c(NC(=O)NC(=O)c2ccc(Cl)cc2Cl)c1.O=C(O)C(F)(F)F [Example 80]
32 | 99% | – | COc1ccc(NC(=O)C(=O)O)cc1NC(=O)NC(=O)c1cc(F)c(F)cc1Cl [Example 5]
33 | 101% | – | COc1ccc(NC(=O)CO)cc1NC(=O)NC(=O)c1cc(F)c(F)cc1Cl [Example 62]

Same assay, conditions: 10 μM test substance; GPa measured in reverse direction (glycogen synthesis from glucose 1-phosphate); 10 µM

Row | % Inhibition at 10 μM | Structure (SMILES)
34 | 98% | COc1ccc(NC(=O)C(C)C)cc1NC(=O)NC(=O)c1cc(F)c(F)cc1Cl [Example 43]
